Assay [1] addresses MAPK14 (human) (UniProt Q16539). In words: Inhibition of MAPK14 Kinase Activity by PHAS-I Assay. To be noted: for inhibition: concentration not given here.
Assay [2] shares this target. As to the kind of experiment: Inhibition of LPS Stimulated TNF Production by U937 Cells. To be noted: for inhibition: concentration not given here.

Bounds are passed on as bounds.

MAPK14 (human), sequence (Q16539 whole entry, looked up): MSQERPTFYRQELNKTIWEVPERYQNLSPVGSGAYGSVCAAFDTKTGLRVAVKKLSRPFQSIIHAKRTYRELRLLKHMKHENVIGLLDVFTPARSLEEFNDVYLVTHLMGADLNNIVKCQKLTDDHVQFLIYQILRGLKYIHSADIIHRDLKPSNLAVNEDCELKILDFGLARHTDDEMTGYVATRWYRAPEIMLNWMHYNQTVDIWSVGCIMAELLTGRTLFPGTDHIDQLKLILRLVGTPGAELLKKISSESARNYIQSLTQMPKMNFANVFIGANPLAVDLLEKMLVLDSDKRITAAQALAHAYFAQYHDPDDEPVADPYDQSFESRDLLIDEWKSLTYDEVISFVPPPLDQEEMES

Usually inhibition stands for the drop in the measured response relative to a control, in per cent. Low values mean little suppression, high ones strong suppression. On to `O=C(NCCCc1[nH]nc(-c2ccc(F)cc2)c1-c1ccncc1)Nc1cccc(F)c1`, for which the inhibition was determined as 80% against MAPK14 (human) [1] and 61% at MAPK14 (human) [2].

As to `O=C(NCCc1[nH]nc(-c2ccc(F)cc2)c1-c1ccncc1)N1CCCC1`, the inhibition against MAPK14 (human) [1] was determined as 76%; against MAPK14 (human) [2], 37%.

Take `Cc1ccc([C@@H](C)NC(=O)Cn2nc(-c3ccc(F)cc3)c(-c3ccncc3)c2C)cc1`: the inhibition on MAPK14 (human) [1] was 81%; against MAPK14 (human) [2] it was 45%.

`CC(C)=CC(=O)NCCc1[nH]nc(-c2ccc(F)cc2)c1-c1ccncc1`: the inhibition on MAPK14 (human) [1] turned out to be 67%; on MAPK14 (human) [2] it was 25%.

Consider `O=C(NCCc1[nH]nc(-c2ccc(F)cc2)c1-c1ccncc1)Nc1cc(Cl)cc(Cl)c1`, for which the figures for the inhibition against MAPK14 (human) [1] and at MAPK14 (human) [2] were 44% and 21%, respectively.

Regarding `CC[C@H](C)NC(=O)Cn1nc(-c2ccc(F)cc2)c(-c2ccncc2)c1C`, the results for the inhibition on MAPK14 (human) [1] and against MAPK14 (human) [2] were 76% and 38%, respectively.

As to `CCOC(=O)C(C)NC(=O)NCCc1[nH]nc(-c2ccc(F)cc2)c1-c1ccncc1` (configuration not stated), the inhibition amounted to 63% on MAPK14 (human) [1] and 25% at MAPK14 (human) [2].

What is called IC50 is the concentration at which inhibition is half-maximal. High values mean weaker potency in that assay, low ones greater potency in that assay. Regarding `Cc1cccc(S(=O)(=O)NCc2[nH]nc(-c3ccc(F)cc3)c2-c2ccncc2)c1`, the IC50 against MAPK14 (human) [1] is 0.47 µM. At MAPK14 (human) [2], this compound returned an inhibition of 82%.

Turning to `O=S(=O)(NCc1[nH]nc(-c2ccc(F)cc2)c1-c1ccncc1)c1cc(Cl)c(Cl)s1`, the inhibition against MAPK14 (human) [1] is 78%. Also, the half-inhibitory concentration (IC50) against MAPK14 (human) [2] stood at 1.81 µM.

Consider `CCS(=O)(=O)NCCc1[nH]nc(-c2ccc(F)cc2)c1-c1ccncc1`, for which the inhibition at MAPK14 (human) [1] was 93%; against MAPK14 (human) [2], 70%.

Consider `O=S(=O)(NCc1[nH]nc(-c2ccc(F)cc2)c1-c1ccncc1)c1ccc(OC(F)(F)F)cc1`, for which, at MAPK14 (human) [1], the inhibition amounted to 42%. For the same compound, the IC50 on MAPK14 (human) [2] amounted to 3.63 µM.

For the compound `COc1ccc(S(=O)(=O)NCCc2[nH]nc(-c3ccc(F)cc3)c2-c2ccncc2)cc1OC`, the values for the inhibition against MAPK14 (human) [1] and against MAPK14 (human) [2] were 70% and 17%, respectively.

Regarding `C[C@@H](NS(=O)(=O)c1ccccc1C(=O)O)c1[nH]nc(-c2ccc(F)cc2)c1-c1ccncc1`, the half-inhibitory concentration (IC50) at MAPK14 (human) [1] was determined as 0.58 µM. On MAPK14 (human) [2], the inhibition was 59%.

Turning to `Cc1c(-c2ccncc2)c(-c2ccc(F)cc2)nn1CC(=O)N(C)CCN(C)C`, at MAPK14 (human) [1], the inhibition amounted to 62%. The compound also registered an IC50 against MAPK14 (human) [2] greater than 10 µM.

Take `O=C(NCCc1[nH]nc(-c2ccc(F)cc2)c1-c1ccncc1)c1ccccc1I`: the inhibition against MAPK14 (human) [1] was 65%; against MAPK14 (human) [2], 23%.

Regarding `O=C(CCC1CC=CC1)NCc1[nH]nc(-c2ccc(F)cc2)c1-c1ccncc1`, the figures for the inhibition at MAPK14 (human) [1] and against MAPK14 (human) [2] were 71% and 84%, respectively.

Regarding `O=C(NCCc1[nH]nc(-c2ccc(F)cc2)c1-c1ccncc1)N1CCOCC1`, the values for the inhibition against MAPK14 (human) [1] and on MAPK14 (human) [2] were 86% and 34%, respectively.

For the compound `O=S(=O)(NCCc1[nH]nc(-c2ccc(F)cc2)c1-c1ccncc1)c1ccccc1F`, the inhibition is 87% at MAPK14 (human) [1] and 36% against MAPK14 (human) [2].

Take `C[C@H](NC(=O)Nc1ccccc1F)c1[nH]nc(-c2ccc(F)cc2)c1-c1ccncc1`: at MAPK14 (human) [1], the 50% inhibitory concentration (IC50) turned out to be 6.84 µM. The inhibition at MAPK14 (human) [2] was 38%.

For the compound `COc1ccc(CC(=O)NCCc2[nH]nc(-c3ccc(F)cc3)c2-c2ccncc2)cc1`, the figures for the inhibition on MAPK14 (human) [1] and on MAPK14 (human) [2] were 55% and 42%, respectively.

`Cc1c(-c2ccncc2)c(-c2ccc(F)cc2)nn1CC(=O)N1CCCCC1C[C@@H]1CCCN1C` (some centres not stated): the inhibition turned out to be 42% against MAPK14 (human) [1] and 24% against MAPK14 (human) [2].

At MAPK14 (human) [1], `CCOC(=O)CNC(=O)NCCc1[nH]nc(-c2ccc(F)cc2)c1-c1ccncc1` showed an inhibition of 74%. For the same compound, the half-maximal inhibitory concentration (IC50) against MAPK14 (human) [2] worked out at 1.1 µM.

At MAPK14 (human) [1], `CC1(C)[C@H]2CC[C@@]1(CS(=O)(=O)NCCc1[nH]nc(-c3ccc(F)cc3)c1-c1ccncc1)C(=O)C2` showed an IC50 of less than 0.1 µM. Moreover, the inhibition against MAPK14 (human) [2] turned out to be 26%.

On to `O=C(NCCc1[nH]nc(-c2ccc(F)cc2)c1-c1ccncc1)Nc1ccc(OC(F)(F)F)cc1`, for which the inhibition at MAPK14 (human) [1] came out at 48%; against MAPK14 (human) [2], 4%.

The compound `COc1ccc(Br)cc1S(=O)(=O)N[C@@H](C)c1[nH]nc(-c2ccc(F)cc2)c1-c1ccncc1` came in with an IC50 against MAPK14 (human) [1] of 1.78 µM. Moreover, the inhibition against MAPK14 (human) [2] was 81%.

On to `CCN(CC)C(=O)NCc1[nH]nc(-c2ccc(F)cc2)c1-c1ccncc1`, for which the half-maximal inhibitory concentration (IC50) against MAPK14 (human) [1] stood at 0.13 µM. Besides, at MAPK14 (human) [2], the inhibition came to 40%.

Consider `O=S(=O)(NCCCc1[nH]nc(-c2ccc(F)cc2)c1-c1ccncc1)c1ccc(F)cc1F`, for which the inhibition against MAPK14 (human) [1] stood at 52%; on MAPK14 (human) [2], 60%.

For the compound `O=C(NCCc1[nH]nc(-c2ccc(F)cc2)c1-c1ccncc1)Nc1ccc(Cl)c(Cl)c1`, the inhibition was 79% against MAPK14 (human) [1] and 23% on MAPK14 (human) [2].

As to `N#Cc1ccc(S(=O)(=O)NCCCc2[nH]nc(-c3ccc(F)cc3)c2-c2ccncc2)cc1`, the half-inhibitory concentration (IC50) at MAPK14 (human) [1] is less than 0.1 µM. Besides, the inhibition against MAPK14 (human) [2] is 75%.

Consider `O=C(NCCc1[nH]nc(-c2ccc(F)cc2)c1-c1ccncc1)Nc1ccc(C(F)(F)F)cc1`, for which the inhibition was 82% at MAPK14 (human) [1] and 20% against MAPK14 (human) [2].

As for `O=C(NCc1[nH]nc(-c2ccc(F)cc2)c1-c1ccncc1)N1CCOCC1`, the IC50 against MAPK14 (human) [1] is 0.56 µM; against MAPK14 (human) [2], greater than 1 µM.

Values taken from the Kinase Knowledgebase extract (Sharma et al. 2016).
